What was measured:
[1] = FT4 powder rheometer powder characterization (8-parameter model); format: physicochemical; set-up: MPS-15: unit not given here; settings: for sBFE (Specific Basic Flow Energy): FT4, Group 1, 25 mm_1C_Split_Rep+VFR_R01; for sBFE (Specific Basic Flow Energy) / SI (Stability Index) / MPS-15 (major Principal Stress @ 15 kPa) / FF-15 (Flow function @ 15 kPa) / CBD-15 (Consolidated Bulk Density @ 15 kPa) / CPS (Compressibility) / WFA (Wall Friction Angle): reference powders; for SI (Stability Index) / SI / sBFE: FT4, Group 1; for SI (Stability Index) / FF-15 (Flow function @ 15 kPa): dimensionless; for MPS-15 (major Principal Stress @ 15 kPa): FT4, Group 2, 25 mm_Shear_15 kPa; for FF-15 (Flow function @ 15 kPa) / CBD-15 (Consolidated Bulk Density @ 15 kPa): FT4, Group 2, shear cell; for CPS (Compressibility): FT4, Group 3, 25 mm_Compressibility_1-15 kPa; for WFA (Wall Friction Angle): FT4, Group 4, 25 mm_Wall Friction_30 kPa; for SI / sBFE / CBD-15 / FF-15 / MPS-15 / CPS / WFA: HDM201-BBA batches; for CBD-15 / FF-15 / MPS-15: FT4, Group 2; for CPS: FT4, Group 3; for WFA: FT4, Group 4
Method: A standard FT4 powder rheometer offers at least 6 powder characterization methods (per measurement cylinder diameter). Those selected for analysis are
25 mm_1C_Split_Rep+VFR_R01;
25 mm_Compressibility_1-15 kPa;
25 mm_Wall Friction_30 kPa.
Each characterization method produces several kind of response parameters (default or manually selectable). A set of complete powder characterizations (at least 22 response parameters per row) were measured for more than 350 different powders and more than 60 different compounds using a standard FT4 powder rheometer and compiled in a database. The various parameters were correlated to the respective filling behavior in order to determine a set of parameters and parameter ranges which is capable of distinguishing and predicting filling behavior of powders.
sBFE: Specific Basic Flow Energy (mJ/g): obtained from BFE (obtained from standard FT4 test platform) divided by the split mass of the sample.
SI: Stability Index, standard variable, dimensionless.
SE: Specific Energy (mJ/g), standard variable
MPS @ 15 kPa: major Principal Stress, standard variable
FF @ 15 kPa: Flow function (dimensionless), from shear cell, standard variable
CBD @ 15 kPa: Consolidated Bulk Density (g/mL), standard variable (from shear cell)
CPS: Compressibility (%), standard variable
WFA: Wall Friction Angle (degree°), standard variable.

[2] = Particle size distribution by laser light diffraction (LLD); format: physicochemical; settings: laser light diffraction, pin-milled HDM201-BBA batches
Source text: Values are given in micrometer, measurements done by laser light diffraction (LLD).

With CC1(N)CCN(c2cccnc2NC(=O)c2nc(-c3ncccc3C(F)(F)F)cnc2N)CC1 [5. LXS196, reference compound] the “sBFE (Specific Basic Flow Energy)” value [1] was 26 mJ/g, the “SI (Stability Index)” value [1] was 1.1 and the MPS-15 (major Principal Stress @ 15 kPa) [1] was 27 kPa. For the same compound, the “FF-15 (Flow function @ 15 kPa)” value [1] was 15, the “CBD-15 (Consolidated Bulk Density @ 15 kPa)” value [1] was 0.7 g/mL and the “CPS (Compressibility)” value [1] was 11%. For the same compound, the “WFA (Wall Friction Angle)” value [1] was 29 °.

With CN(C)C(=O)c1cc2cnc(Nc3ccc(N4CCNCC4)cn3)nc2n1C1CCCC1 [1. LEE011, reference compound] the “sBFE (Specific Basic Flow Energy)” value [1] was 38 mJ/g, the “SI (Stability Index)” value [1] was 0.9 and the MPS-15 (major Principal Stress @ 15 kPa) [1] was 42 kPa. The “FF-15 (Flow function @ 15 kPa)” value [1] was 5.8, the “CBD-15 (Consolidated Bulk Density @ 15 kPa)” value [1] was 0.6 g/mL and the “CPS (Compressibility)” value [1] was 26%. The “WFA (Wall Friction Angle)” value [1] was 40 °.

With COc1ncc(-c2nc3c(n2C(C)C)[C@H](c2ccc(Cl)cc2)N(c2cc(Cl)cn(C)c2=O)C3=O)c(OC)n1.O=C(O)CCC(=O)O [Batch C3] the X10 ([2]; listed as C3) was 3 micrometer, the X50 ([2]; listed as C3) was 19 micrometer and the X90 ([2]; listed as C3) was 58 micrometer. It also gave an SI ([1]; listed as C3) of 1.03, a sBFE ([1]; listed as C3) of 8 mJ/g and a CBD-15 ([1]; listed as C3) of 0.62 g/mL. For the same compound, the FF-15 ([1]; listed as C3) was 3.7, the MPS-15 ([1]; listed as C3) was 29 and the CPS ([1]; listed as C3) was 36%.

With COc1ncc(-c2nc3c(n2C(C)C)[C@H](c2ccc(Cl)cc2)N(c2cc(Cl)cn(C)c2=O)C3=O)c(OC)n1.O=C(O)CCC(=O)O [Batch B3] the X10 ([2]; listed as B3) was 5 micrometer, the X50 ([2]; listed as B3) was 26 micrometer and the X90 ([2]; listed as B3) was 87 micrometer. It also gave an SI ([1]; listed as B3) of 1.11, a sBFE ([1]; listed as B3) of 9 mJ/g and a CBD-15 ([1]; listed as B3) of 0.70 g/mL. The FF-15 ([1]; listed as B3) was 5.3, the MPS-15 ([1]; listed as B3) was 29 and the CPS ([1]; listed as B3) was 26%. It also gave a WFA ([1]; listed as B3) of 35 °.

For CCC(=O)N1CC[C@H](Nc2ncnc3c2CN(c2cnc(OC)c(C(F)(F)F)c2)CC3)C1 [7. CDZ173, reference compound], the “sBFE (Specific Basic Flow Energy)” value [1] was 82 mJ/g, the “SI (Stability Index)” value [1] was 1.1 and the MPS-15 (major Principal Stress @ 15 kPa) [1] was 9.6 kPa. For the same compound, the “FF-15 (Flow function @ 15 kPa)” value [1] was 5, the “CBD-15 (Consolidated Bulk Density @ 15 kPa)” value [1] was 0.2 g/mL and the “CPS (Compressibility)” value [1] was 56%. For the same compound, the “WFA (Wall Friction Angle)” value [1] was 37 °.

COc1ncc(-c2nc3c(n2C(C)C)[C@H](c2ccc(Cl)cc2)N(c2cc(Cl)cn(C)c2=O)C3=O)c(OC)n1.O=C(O)CCC(=O)O [Batch C1] showed an X10 ([2]; listed as C1) of 21 micrometer, an X50 ([2]; listed as C1) of 69 micrometer and an X90 ([2]; listed as C1) of 163 micrometer. The SI ([1]; listed as C1) was 1.15, the sBFE ([1]; listed as C1) was 33 mJ/g and the CBD-15 ([1]; listed as C1) was 0.68 g/mL. For the same compound, the FF-15 ([1]; listed as C1) was 9.0, the MPS-15 ([1]; listed as C1) was 31 and the CPS ([1]; listed as C1) was 14%. The WFA ([1]; listed as C1) was 34 °.

For COc1ncc(-c2nc3c(n2C(C)C)[C@H](c2ccc(Cl)cc2)N(c2cc(Cl)cn(C)c2=O)C3=O)c(OC)n1.O=C(O)CCC(=O)O [Batch A1], the X10 ([2]; listed as A1) was 1 micrometer, the X50 ([2]; listed as A1) was 5 micrometer and the X90 ([2]; listed as A1) was 14 micrometer. The SI ([1]; listed as A1) was 1.07, the sBFE ([1]; listed as A1) was 6 mJ/g and the CBD-15 ([1]; listed as A1) was 0.53 g/mL. The FF-15 ([1]; listed as A1) was 2.5, the MPS-15 ([1]; listed as A1) was 32 and the CPS ([1]; listed as A1) was 43%. It also gave a WFA ([1]; listed as A1) of 35 °.

For OC[C@H]1O[C@@H](O[C@H]2[C@H](O)[C@@H](O)[C@@H](O)O[C@@H]2CO)[C@H](O)[C@@H](O)[C@H]1O [4. Lactose 125M, reference compound], the “sBFE (Specific Basic Flow Energy)” value [1] was 16 mJ/g, the “CPS (Compressibility)” value [1] was 13% and the “WFA (Wall Friction Angle)” value [1] was 27 °.

Reference: US20220175682A1, “Siremadlin Succinate” (Novartis AG, priority 2019, published 2022)
